In the supplement of paper PMC10307832:

What follows are cell lines tested with COc1cccc2c1C(=O)c1c(O)c3c(c(O)c1C2=O)C[C@@](O)(C(=O)CO)C[C@@H]3O[C@H]1C[C@H](N)[C@H](O)[C@H](C)O1 [Doxorubicin] (assay: relative viability (nuclei count vs DMSO), 5 days (fraction); higher = more cells survive). Conditions: 0.1 µM.
Outline: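 In 1536-well plates, lung cancer cell lines rested overnight at 37 °C before five library-drug doses (not always all listed), √10 apart, were pinned onto vehicle-anchored plates. Nuclei were counted with MetaXpress from 4× Hoechst images taken after 5 days without medium change. Viability compares treated-well with vehicle-well nuclei as a median over plates, and plates needed control CV below 25% plus at least one doubling to pass.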

Cell Line | relative viability
PC-14 | 0.52
HCC-366 | 0.587

These cell lines were tested with COC1=C(C=C(C=C1)C2=CC3=NC=CN3C(=N2)NC4=C(C=CC=N4)C(=O)N)OC [BAY61-3606] + CS(=O)(=O)N1CCN(Cc2cc3nc(-c4cccc5[nH]ncc45)nc(N4CCOCC4)c3s2)CC1 [Pictilisib] (partner 1 µM) (assay: relative viability (nuclei count vs DMSO), 5 days (fraction); higher = more cells survive). Conditions: first compound 0.02 µM.
Outline: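 After 5 days of treatment, lung cancer cells in 1536-well plates were fixed and stained in a single step (final 0.05% Triton X-100, 1% formaldehyde, 1 ug/ml Hoechst) and their nuclei counted on 4× images. Treatment had been applied by pin tool the day after seeding as one drug alone or as a fixed anchor-drug dose with five library-drug doses (not always all listed) in √10 steps. Relative viability is the nuclei count of treated wells divided by that of vehicle wells, and values are medians of duplicate plates.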

Cell Line | relative viability
NCI-H650 | 0.984
NCI-H3122 | 0.621
NCI-H1395 | 0.777
201T | 0.716
NCI-H1975 | 0.354
HOP-62 | 0.68
NCI-H1299 | 0.822
NCI-H2405 | 0.623
NCI-H1355 | 0.508
NCI-H838 | 0.568
CAL-12T | 0.553
NCI-H1666 | 0.521
EPLC-272H | 0.442
NCI-H2347 | 0.715
NCI-H1915 | 0.999
NCI-H1437 | 0.532

Cell Line | relative viability
NCI-H460 | 0.433
NCI-H1563 | 0.621
NCI-H1792 | 0.293
NCI-H2085 | 0.376
HCC-15 | 0.848
NCI-H1944 | 0.384
EKVX | 0.415
NCI-H1650 | 0.728
NCI-H2170 | 0.368
NCI-H1993 | 0.871
NCI-H23 | 0.743
ABC-1 | 0.822
SK-MES-1 | 0.393
PC-14 | 0.647
HCC-366 | 0.188

Same assay, conditions: first compound 0.06325 µM

Cell Line | relative viability
NCI-H650 | 0.722
NCI-H3122 | 0.632
NCI-H1395 | 0.524
201T | 0.677
NCI-H1975 | 0.238
NCI-H1299 | 0.854
NCI-H2405 | 0.308
NCI-H1355 | 0.378
NCI-H838 | 0.432
CAL-12T | 0.348
EPLC-272H | 0.373
NCI-H2347 | 0.495
NCI-H1915 | 0.99
NCI-H1437 | 0.44
NCI-H460 | 0.353
NCI-H1563 | 0.579
NCI-H1792 | 0.176
NCI-H2085 | 0.487
HCC-15 | 0.65
NCI-H1944 | 0.346
EKVX | 0.404
NCI-H1650 | 0.493
NCI-H2170 | 0.28
NCI-H1993 | 0.764
NCI-H23 | 0.522
ABC-1 | 0.766
SK-MES-1 | 0.337
PC-14 | 0.605
HCC-366 | 0.138

Same assay, conditions: first compound 0.2 µM

Cell Line | relative viability
NCI-H650 | 0.798
NCI-H3122 | 0.568
NCI-H1395 | 0.584
201T | 0.761
NCI-H1975 | 0.253
HOP-62 | 0.582
NCI-H1299 | 0.844
NCI-H2405 | 0.379
NCI-H1355 | 0.389
NCI-H838 | 0.601
CAL-12T | 0.414
NCI-H1666 | 0.447
EPLC-272H | 0.264
NCI-H2347 | 0.801
NCI-H1915 | 0.739
NCI-H1437 | 0.507

Cell Line | relative viability
NCI-H460 | 0.319
NCI-H1563 | 0.731
NCI-H1792 | 0.328
NCI-H2085 | 0.499
HCC-15 | 0.697
NCI-H1944 | 0.337
EKVX | 0.407
NCI-H1650 | 0.68
NCI-H2170 | 0.308
NCI-H1993 | 0.755
NCI-H23 | 0.49
ABC-1 | 0.787
SK-MES-1 | 0.333
PC-14 | 0.654
HCC-366 | 0.107

Same assay, conditions: first compound 0.6325 µM

Cell Line | relative viability
NCI-H650 | 1.01
NCI-H3122 | 0.59
NCI-H1395 | 0.641
201T | 0.703
NCI-H1975 | 0.262
HOP-62 | 0.783
NCI-H1299 | 0.918
NCI-H2405 | 0.371
NCI-H1355 | 0.374
NCI-H838 | 0.523
CAL-12T | 0.392
NCI-H1666 | 0.375
EPLC-272H | 0.25
NCI-H2347 | 0.746
NCI-H1915 | 0.884
NCI-H1437 | 0.442

Cell Line | relative viability
NCI-H460 | 0.35
NCI-H1563 | 0.654
NCI-H1792 | 0.363
NCI-H2085 | 0.459
HCC-15 | 0.769
NCI-H1944 | 0.326
EKVX | 0.411
NCI-H1650 | 0.564
NCI-H2170 | 0.389
NCI-H1993 | 0.868
NCI-H23 | 0.522
ABC-1 | 0.709
SK-MES-1 | 0.354
PC-14 | 0.994
HCC-366 | 0.156

Same assay, conditions: first compound 2 µM

Cell Line | relative viability
NCI-H650 | 0.596
NCI-H3122 | 0.619
NCI-H1395 | 0.559
201T | 0.744
NCI-H1975 | 0.19
HOP-62 | 0.53
NCI-H1299 | 0.503
NCI-H2405 | 0.43
NCI-H1355 | 0.302
NCI-H838 | 0.324
CAL-12T | 0.346
NCI-H1666 | 0.395
EPLC-272H | 0.248
NCI-H2347 | 0.892
NCI-H1915 | 0.685
NCI-H1437 | 0.391
NCI-H460 | 0.377
NCI-H1563 | 0.653
NCI-H1792 | 0.303
NCI-H2085 | 0.601
HCC-15 | 0.665
NCI-H1944 | 0.281
EKVX | 0.388
NCI-H1650 | 0.402
NCI-H2170 | 0.265
NCI-H1993 | 0.804
NCI-H23 | 0.382
ABC-1 | 0.538
SK-MES-1 | 0.315
